Experimental data published in article PMC5760527, “Connexin 43 Hemichannel as a Novel Mediator of Sterile and Infectious Inflammatory Diseases” (Scientific Reports, 2018).

What was measured:
[1] = system: LPS-induced Cx43 upregulation, macrophages; assay: LPS-induced Cx43 upregulation in presence of P5; format: cell-based; conditions: macrophage cultures; data not shown
Experimental: The cellular levels of Cx43 and phosphor-PKR were determined by Western blotting analysis using an affinity-purified rabbit anti-Cx43 or anti-phospho-PKR (Thr^451) IgGs as previously described[9],[25],[53]. The levels of HMGB1 in the culture medium were determined by Western blotting analysis as described previously. The level of β-actin was used as a reference of total cellular proteins. Briefly, an equal volume of culture medium (conditioned by identical macrophage cell numbers) was harvested, and protein content was concentrated by ultrafiltration (with a molecular weight cutoff of 10.0 kDa), and then normalized to the same volume with a sample buffer. Proteins in equal sample volume were resolved on sodium dodecyl sulfate (SDS)-polyacrylamide gels, and transferred to polyvinylidene difluoride (PVDF) membranes. After blocking with 5% nonfat milk, the membrane was incubated with respective antibodies (anti-Cx43, 1:1000; anti-phospho-PKR, 1:1000; anti-HMGB1, 1:1,000; anti-β-actin. 1:5,000) overnight. Subsequently, the membrane was incubated with the appropriate secondary antibody, and the immunoreactive bands were visualized by chemiluminescence techniques.

[2] = system: LPS-induced trypan blue uptake, RAW 264.7 cells; assay: Trypan blue uptake assay; format: cell-based, murine; conditions: P5 10 µg/ml, LPS 1.0 µg/ml, 16 h, 0.08% trypan blue, P < 0.05 versus +LPS
Experimental: Specifically, murine macrophage-like RAW 264.7 cells were stimulated with LPS (1.0 µg/ml) in the absence or presence of P5 peptide (10 µg/ml) for 16 h, and the culture medium was then replaced with 1 × PBS containing 0.08% trypan blue (Cat. # 15250-061, Invitrogen). Phase contrast images of multiple fields were randomly captured, and the percentage of trypan blue-stained cells was calculated.

[3] = system: LPS-induced ATP release, RAW 264.7 cells; assay: ATP release assay; format: cell-based, murine; conditions: P5 20 µM; LPS 1 µg/ml; RAW 264.7, serum-free DMEM; luciferin:luciferase; P < 0.05 versus +LPS
Experimental: In addition to the LY dye uptake, we also employed the ATP release assay to measure the Cx43 hemichannel activities. The current gold standard for ATP quantification relied on luciferin:luciferase chemistry where the enzyme luciferase catalyzed the oxidation of ATP and luciferin ultimately resulting in the generation of a photon which could be quantified by luminometry using a luminometer plate reader (Synergy H1 Hybrid, Biotek, Winooski, U.S.A.) and the amount of ATP was calculated from standard curve. Briefly, RAW 264.7 cells were cultured in serum-free DMEM medium, and stimulated with LPS (1 µg/ml) in the absence or presence of Cx43 mimetic peptide (P5, 20 µM). The cell-conditioned culture medium was collected and subjected to ATP measurement. We used the Molecular Probes® ATP Determination Kit (Cat. # A22066, Life Technologies), which was based on luciferase’s absolute requirement for ATP in producing light (emission maximum ~560 nm at pH 7.8), to measure the extracellular ATP levels in LPS-stimulated RAW 264.7 cells.

[4] = system: TUNEL-positive cells, lungs of septic mice (CLP); assay: TUNEL staining of septic lungs; format: in vivo, Balb/c mice; conditions: lungs at 24 h post CLP, at protective doses; 5–8 fields; P < 0.05 versus CLP
Description: (§1) This study was approved and performed in accordance with the guidelines of the Institutional Animal Care and Use Committee of the Feinstein Institute for Medical Research, Manhasset, New York, USA (Animal Protocol #2008-033, Approval date: September 10, 2014). To evaluate the effect of various Cx43 mimetic peptides on sepsis lethality, a clinically relevant animal model of sepsis induced by cecal ligation and puncture (CLP) was employed. Briefly, the cecum of Balb/c mice was ligated at about 5 mm from the cecal tip, and then punctured once with a 22-gauge needle. GAP26, TAT-GAP19 or P5 peptides were administered intraperitoneally into mice at indicated doses and time points, and animal survival rates were monitored for up to 2 wks. The Kaplan-Meier method was used to compare the differences in mortality rates between groups.
Upper and lower lobe lung tissues were collected at 24 h post CLP, fixed in 4% paraformaldehyde, embedded in paraffin, and cut into 5 µm thick sections. […] Five to eight fields of view were randomly selected for each tissue section, and the number of TUNEL-positive green cells was expressed as an average of percentage of total DAPI-positive blue cells.

[5] = system: Cx43 gap junctions, NIH 3T3 fibroblasts; assay: Cx43 gap junction formation, immunostaining; format: cell-based; conditions: P5 20 µM, overnight
Experimental: Primary peritoneal macrophages were isolated from Balb/c mice, stimulated with LPS or SAA for 6 h, and immunostained with an affinity-purified rabbit anti-Cx43 IgGs (1:1,000 dilution at 4 °C) as previously described. Non-immune NIH 3T3 cells were grown on glass coverslips to confluency to allow formation of gap junctional channels. The growth medium was changed to DMEM before an overnight incubation with P5 (20 µM). Cells were then fixed with 2% paraformaldehyde, incubated for 16 hr with a well-characterized affinity-purified rabbit anti-Cx43 IgGs as previously described. After extensive washing, cells were incubated with donkey anti-rabbit Alexa 488 (Invitrogen) for 1 hr at room temperature. The coverslips were subsequently mounted on glass slides using anti-fade medium and examined using an epi-fluorescence microscope.

Cx43 EL2 peptide = assay: Surface Plasmon Resonance, Cx43 EL2 peptide; format: binding; conditions: synthetic full-length EL2 peptide, data not shown
[6] = system: gap junctional intercellular communication, NIH 3T3 fibroblasts; assay: Scrape-loading assay of GJ intercellular communication; format: cell-based; conditions: LY (444 Da) and rhodamine dextran (10,000 Da), overnight or 20 min incubation, 2 min diffusion
Experimental: We used NIH 3T3 fibroblasts to investigate the effects of Cx43 mimetic peptides on GJ permeability employing a technique termed scrape-loading. After overnight or 20 min incubation with or without Cx43 mimetic peptides in DMEM, EGTA was added to DMEM to deplete free calcium. Immediately afterwards, 1% LY and 1% rhodamine dextran was added into PBS, followed by scraping the cell monolayer with a pipette tip loading tracers into cytoplasmic compartment of scraped cells. Tracers were allowed to diffuse to adjacent cells for 2 min before immobilized by PF fixation for 10 minutes. Cells were subsequently extensively washed in PBS three times and coversliped to allow examination of LY diffusion.

[7] = system: Balb/c mice, polymicrobial sepsis (CLP); assay: CLP-induced sepsis survival; format: in vivo; conditions: P5 8.0 mg/kg
Description: as §1

[8] = system: LPS-induced production of nitric oxide; assay: Nitric oxide production; format: cell-based; conditions: data not shown

## ENVCYD [P5, cysteine-containing Cx43 EL1 mimetic hexamer peptide, P5 (ENVCYD)]
[1]
  LPS-induced Cx43 upregulation: did not affect the LPS-induced Cx43 upregulation
[2]
  LPS-induced trypan blue uptake: significantly suppressed the LPS-induced elevation of trypan blue uptake
[3]
  LPS-induced ATP release: significantly attenuated the LPS-induced ATP release
[4]
  TUNEL-positive cells in septic lungs: significantly reduced the number of TUNEL-positive cells in septic lungs
[5]
  GJ formation (Cx43 punctate immunostaining): did not alter the punctate immunostaining profile of Cx43
Cx43 EL2 peptide
  binding to Cx43 EL2 peptide: did not find evidence of P5 interacting
[6]
  gap junctional transfer of LY / RD immobility: no obvious difference in the LY diffusion or RD immobility patterns
[7]; +2 h and +24 h after onset of sepsis, P < 0.05 versus CLP + Saline
  animal survival rates (in words): significant increase in animal survival rates
[7]; i.p., +2, +24 h post CLP, up to two weeks, saline 30%, P < 0.05, Kaplan-Meier
  animal survival: 85%
[8]
  LPS-induced production of nitric oxide: did not affect the LPS-induced production of nitric oxide
